Measured values taken from ChEMBL document CHEMBL5506010, “Butyrylcholinesterase-Activated Near-Infrared Fluorogenic Probe for In Vivo Theranostics of Alzheimer's Disease” (J Med Chem, 2024).
Activity calls are given as the source filed them. No cut-off for these calls is given here.

How the values were obtained:
Cholinesterase [1] = biological target: T1, Cholinesterase (Homo sapiens, UniProt P06276); assay: Inhibition of human BChE using butyrylthiocholineiodide as substrate preincubated for 5 mins followed by substrate addition and measured immediately by Ellmans method
T1 sequence (P06276 whole entry): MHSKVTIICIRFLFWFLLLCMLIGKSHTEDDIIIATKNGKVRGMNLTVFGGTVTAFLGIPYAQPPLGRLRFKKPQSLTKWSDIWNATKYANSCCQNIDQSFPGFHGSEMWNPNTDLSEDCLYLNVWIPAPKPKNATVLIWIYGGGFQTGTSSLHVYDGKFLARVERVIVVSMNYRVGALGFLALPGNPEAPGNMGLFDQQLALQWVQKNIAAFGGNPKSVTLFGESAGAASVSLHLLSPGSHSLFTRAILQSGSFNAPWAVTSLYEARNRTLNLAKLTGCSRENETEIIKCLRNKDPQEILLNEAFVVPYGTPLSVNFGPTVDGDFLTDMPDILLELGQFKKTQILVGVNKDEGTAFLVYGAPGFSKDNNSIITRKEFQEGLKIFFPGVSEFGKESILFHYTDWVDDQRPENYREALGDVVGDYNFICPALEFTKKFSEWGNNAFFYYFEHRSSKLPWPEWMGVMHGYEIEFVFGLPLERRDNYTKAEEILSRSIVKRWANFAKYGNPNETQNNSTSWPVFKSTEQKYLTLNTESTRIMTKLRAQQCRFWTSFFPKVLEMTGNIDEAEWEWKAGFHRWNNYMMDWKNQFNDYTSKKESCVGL

[2] = Stability of compound in PBS at pH 7.4 measured after 72 hrs by HPLC analysis; assay type: physicochemical; conditions: buffer, pH 7.4, 72 h
Cholinesterase [3] = biological target: T1, Cholinesterase; assay: Binding affinity to BChE in human SH-SY5Y cells at 10 uM incubated for 1 hrs by fluorescence based confocal laser scanning microscopic analysis; assay type: cell-based
[4] = biological target: Cholinesterase (Mus musculus) (UniProt Q03311); assay: Binding affinity to BChE in mouse HT-22 cells at 10 uM incubated for 1 hrs by fluorescence based confocal laser scanning microscopic analysis; assay type: cell-based
Sequence of Cholinesterase (Mus musculus) (Q03311 whole entry): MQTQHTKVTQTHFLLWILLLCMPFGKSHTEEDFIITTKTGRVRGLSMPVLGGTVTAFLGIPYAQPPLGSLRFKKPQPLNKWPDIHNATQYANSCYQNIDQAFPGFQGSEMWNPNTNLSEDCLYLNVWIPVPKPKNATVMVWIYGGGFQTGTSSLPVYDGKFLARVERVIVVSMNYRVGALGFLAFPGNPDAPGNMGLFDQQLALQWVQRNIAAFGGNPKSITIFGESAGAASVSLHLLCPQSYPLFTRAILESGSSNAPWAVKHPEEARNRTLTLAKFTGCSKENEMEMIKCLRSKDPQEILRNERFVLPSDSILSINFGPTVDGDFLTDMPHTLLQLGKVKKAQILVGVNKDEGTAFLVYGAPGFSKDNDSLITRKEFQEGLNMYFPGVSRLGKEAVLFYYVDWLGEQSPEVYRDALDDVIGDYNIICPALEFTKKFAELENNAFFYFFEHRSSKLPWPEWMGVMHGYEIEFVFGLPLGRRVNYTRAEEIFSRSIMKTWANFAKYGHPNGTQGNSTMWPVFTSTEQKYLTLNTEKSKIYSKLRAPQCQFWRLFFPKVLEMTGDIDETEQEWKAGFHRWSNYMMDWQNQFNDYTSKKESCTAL

PC-12 [5] = assay: Binding affinity to BChE in rat PC-12 cells assessed as increase in fluorescence intensity at 10 uM incubated for 24 hrs by fluorescence based confocal laser scanning microscopic analysis; assay type: cell-based
PC-12 [6] = assay: Binding affinity to BChE in rat PC-12 cells assessed as increase in fluorescence intensity preincubated with tacrine for 24 hrs followed by compound addition and measured after 1 hrs by fluorescence based confocal laser scanning microscopic analysis; assay type: cell-based
PC-12 [7] = assay: Binding affinity to BChE in rat PC-12 cells assessed as increase in fluorescence intensity preincubated with S11-1014 for 24 hrs followed by compound addition and measured after 1 hrs by fluorescence based confocal laser scanning microscopic analysis; assay type: cell-based
[8] = Neurotoxicity in mouse HT-22 cells assessed as reduction in cell viability at 50 uM; assay type: toxicity, cell-based; conditions: ht-22, 50 µM
SH-SY5Y [9] = assay: Neuroprotective activity against amyloid-beta (1 to 42)-induced human SH-SY5Y cells assessed as increase in ACh level in culture medium at 10 to 20 uM incubated for 24 hrs by ELISA; assay type: functional, cell-based; conditions: dose 10-20 µM
SH-SY5Y [10] = assay: Neuroprotective activity against amyloid-beta (1 to 42)-induced human SH-SY5Y cells assessed as increase in ACh level in cell lysate at 10 to 20 uM incubated for 24 hrs by ELISA; assay type: functional, cell-based; conditions: dose 10-20 µM
[11] = Permeability of compound incubated for 18 hrs by PAMPA-BBB based UV plate spectroscopic reader analysis; assay type: ADME; conditions: read-out: permeability
[12] = Stability of compound in male ICR mouse plasma at 100 uM, iv measured after 30 mins by fluorescence microplate reader; assay type: ADME, organism-based; conditions: 0.5 h
[13] = Drug accumulation in brain of APP/PS1 transgenic AD-mouse model at 100 uM, iv measured after 24 hrs […] by fluorescence imaging analysis; assay type: ADME, organism-based; conditions: in vivo
[14] = Drug uptake in brain of 8 months old AD-mouse model assessed as increase in fluorescence at 100 uM, iv by fluorescence scanning analysis; assay type: ADME, organism-based; conditions: in vivo
[15] = Drug uptake in brain of 6 weeks old AD-mouse model assessed as increase in fluorescence at 100 uM, iv preadministered with tacrine for 4 hrs followed by compound administration by fluorescence scanning analysis; assay type: ADME, organism-based; conditions: in vivo
Mus musculus [16] = assay: Antialzheimer activity in APP/PS1 transgenic AD mouse model assessed as increase in alteration performance administered intravenously once every 2 days for 10 times and measured on day 26 by Y maze test; assay type: functional, organism-based; conditions: route iv, time 26.0 day
Mus musculus [17] = assay: Antialzheimer activity in APP/PS1 transgenic AD mouse model assessed as improvement in memory administered intravenously once every 2 days for 10 times and measured on day 26 by Y maze test; assay type: functional, organism-based; conditions: route iv, time 26.0 day
Mus musculus [18] = assay: Antialzheimer activity in APP/PS1 transgenic AD mouse model assessed as increase in ACh level administered intravenously once every 2 days for 10 times and measured on day 30 by ELISA; assay type: functional, organism-based; conditions: route iv, time 30.0 day
Mus musculus [19] = assay: Antialzheimer activity in APP/PS1 transgenic AD mouse model assessed as decrease in amyloid beta (1 to 42) level administered intravenously once every 2 days for 10 times and measured on day 30 by ELISA; assay type: functional, organism-based; conditions: route iv, time 30.0 day
[20] = Toxicity in APP/PS1 transgenic AD mouse model assessed as spleen damage administered intravenously once every 2 days for 10 times and measured on day 30 by H and E staining based analysis; assay type: tissue-based; conditions: in vivo, iv, 720 h, time 30 day
[21] = Toxicity in APP/PS1 transgenic AD mouse model assessed as lung damage administered intravenously once every 2 days for 10 times and measured on day 30 by H and E staining based analysis; assay type: tissue-based; conditions: in vivo, iv, 720 h, time 30 day
Cholinesterase [22] = biological target: T1, Cholinesterase; assay: Binding affinity to BChE (unknown origin) in PBS assessed as red-shift in maximum absorption to 680 nm by UV/vis absorption analysis
Cholinesterase [23] = biological target: T1, Cholinesterase; assay: Binding affinity to BChE (unknown origin) in PBS assessed as […] at 680 nm by UV/vis absorption analysis
Cholinesterase [24] = biological target: T1, Cholinesterase; assay: Binding affinity to BChE (unknown origin) in PBS assessed as maximum emission wavelength at 710 nm by fluorescence spectra analysis
Homo sapiens [25] = species: Homo sapiens; assay: Binding affinity to ALP (unknown origin) by fluorescence analysis
Homo sapiens [26] = species: Homo sapiens; assay: Binding affinity to lysozyme (unknown origin) by fluorescence analysis
Acetylcholinesterase = Acetylcholinesterase (Homo sapiens, UniProt P22303); assay: Binding affinity to AChE (unknown origin) by fluorescence analysis
Sequence of Acetylcholinesterase (P22303 whole entry): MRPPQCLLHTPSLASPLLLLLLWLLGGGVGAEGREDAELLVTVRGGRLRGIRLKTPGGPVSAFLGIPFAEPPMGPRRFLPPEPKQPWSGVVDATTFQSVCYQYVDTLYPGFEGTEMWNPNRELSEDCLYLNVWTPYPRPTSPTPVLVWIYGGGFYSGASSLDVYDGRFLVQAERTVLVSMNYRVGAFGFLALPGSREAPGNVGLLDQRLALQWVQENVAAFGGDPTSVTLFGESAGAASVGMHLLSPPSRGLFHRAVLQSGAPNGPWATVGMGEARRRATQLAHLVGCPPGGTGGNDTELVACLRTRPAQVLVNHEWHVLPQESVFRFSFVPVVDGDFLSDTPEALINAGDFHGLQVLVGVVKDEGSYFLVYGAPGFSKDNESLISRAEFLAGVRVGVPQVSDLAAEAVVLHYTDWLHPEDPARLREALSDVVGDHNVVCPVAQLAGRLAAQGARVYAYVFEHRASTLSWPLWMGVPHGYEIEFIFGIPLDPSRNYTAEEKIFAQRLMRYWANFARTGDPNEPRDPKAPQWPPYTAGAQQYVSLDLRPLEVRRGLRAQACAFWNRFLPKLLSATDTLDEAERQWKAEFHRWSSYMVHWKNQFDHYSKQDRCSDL

Cholinesterase [27] = biological target: T1, Cholinesterase; assay: Binding affinity to BChE (unknown origin) in PBS assessed as Michaelis-menten constant by fluorometric method

## CCN(CC)Cc1ccccc1CNC(=O)c1cccc(NC(=O)c2cccc(C(=O)NCCn3cc(CCC[N+]4=C(/C=C/C5=C6Oc7cc(OC(=O)C8CC8)ccc7C=C6CCC5)C(C)(C)c5ccccc54)nn3)c2)c1.[I-]
Cholinesterase [1]
  IC50: 29.7 nM
[2]
  Stability: Stable
Cholinesterase [3]
  Activity: Active
[4]
  Activity: Active
PC-12 [5]
  Activity: Active
PC-12 [6]
  Activity: inactive
PC-12 [7]
  Activity: inactive
[8]
  Activity: Non-Toxic
SH-SY5Y [9]
  Activity: Active
SH-SY5Y [10]
  Activity: Active
[11]
  Papp at 18 h: 15.5 ×10⁻⁶ cm/s
[12]
  Stability: Stable
[13]
  Drug uptake: Not Active
[14]
  Drug uptake: Active
[15]
  Drug uptake: Not Active
Mus musculus [16]
  Activity: Active
Mus musculus [17]
  Activity: inactive
Mus musculus [18]
  Activity: Active
Mus musculus [19]
  Activity: Active
[20]
  Activity: Non-Toxic
[21]
  Activity: Non-Toxic
Cholinesterase [22]
  Activity: Active
Cholinesterase [23]
  Activity: Active
Cholinesterase [24]
  Activity: Active
Homo sapiens [25]
  Activity: inactive
Homo sapiens [26]
  Activity: inactive
Acetylcholinesterase
  Activity: inactive
Cholinesterase [27]
  Activity: 12.9 µM
